Species: Rattus norvegicus
Experiment: Open TG-GATES - Regimen: Single
Type: toxicity, organism-based, Sprague-Dawley
Parameters: regimen Single, gender Male, age 6 weeks
Conditions: in vivo, po, 0 mg/kg, route gavage, dose level Control; for Bas / Eos / Fbg / Hb / Ht / Lym / MCH / MCHC / Mono / Neu / PT / Plat / RBC / Ret / WBC: tissue Blood; for KIDNEY_L / KIDNEY_R / KIDNEY_TOTAL: tissue Kidney; for LIVER: tissue Liver; for ALP / ALT / AST / BUN / CRE / Ca / DBIL / IP / K / LDH / Na / PL / RALB / TBIL / TC / TG / TP / gamma-GTP: tissue Plasma

## CCC(C)(C)C(=O)O[C@H]1C[C@@H](C)C=C2C=C[C@H](C)[C@H](CC[C@@H]3C[C@@H](O)CC(=O)O3)[C@H]21 [SIMVASTATIN]
3 h
  TERMINAL_BW: 203.4 g
  Bas: 0%
  Eos: 1%
  Fbg: 216.8 mg/dL
  Hb: 12.9 g/dL
  Ht: 39.1%
  Lym: 83.6%
  MCH: 21.5 pg
  MCHC: 32.8%
  Mono: 6%
  Neu: 9.6%
  PT: 11 s
  Plat: 101.5 x10_4/uL
  RBC: 596.2 x10_4/ul
  Ret: 7.8%
  WBC: 114.1 x10_2/uL
  KIDNEY_L: 0.9 g
  KIDNEY_R: 1 g
  KIDNEY_TOTAL: 1.9 g
  LIVER: 9.7 g
  ALP: 839.8 IU/L
  ALT: 35.4 IU/L
  AST: 61.6 IU/L
  BUN: 14.4 mg/dL
  CRE: 0.6 mg/dL
  Ca: 11 mg/dL
  DBIL: 0.02 mg/dL
  IP: 9.1 mg/dL
  K: 4.4 meq/L
  LDH: 82.2 IU/L
  Na: 138.8 meq/L
  PL: 147.4 mg/dL
  RALB: 3.5 g/dL
  TBIL: 0.4 mg/dL
  TC: 83.8 mg/dL
  TG: 63.6 mg/dL
  TP: 5.6 g/dL
  gamma-GTP: 1.6 IU/L
6 h
  TERMINAL_BW: 199.1 g
  Bas: 0%
  Eos: 1%
  Fbg: 208.2 mg/dL
  Hb: 13 g/dL
  Ht: 39.5%
  Lym: 79.8%
  MCH: 21.8 pg
  MCHC: 32.8%
  Mono: 6.2%
  Neu: 13%
  PT: 11.8 s
  Plat: 111.5 x10_4/uL
  RBC: 597.2 x10_4/ul
  Ret: 9.2%
  WBC: 109.4 x10_2/uL
  KIDNEY_L: 0.9 g
  KIDNEY_R: 0.9 g
  KIDNEY_TOTAL: 1.7 g
  LIVER: 8.5 g
  ALP: 648 IU/L
  ALT: 29 IU/L
  AST: 60.4 IU/L
  CRE: 0.5 mg/dL
  Ca: 10.8 mg/dL
  DBIL: 0.046 mg/dL
  IP: 9.4 mg/dL
  K: 4.5 meq/L
  LDH: 77 IU/L
  Na: 137.8 meq/L
  PL: 120.4 mg/dL
  RALB: 3.6 g/dL
  TBIL: 0.4 mg/dL
  TC: 70.6 mg/dL
  TG: 47.8 mg/dL
  TP: 5.5 g/dL
  gamma-GTP: 1 IU/L
9 h
  TERMINAL_BW: 197.5 g
  Bas: 0%
  Eos: 1%
  Fbg: 215.2 mg/dL
  Hb: 13.2 g/dL
  Ht: 40.2%
  Lym: 85.6%
  MCHC: 32.9%
  Mono: 5.4%
  Neu: 8.2%
  PT: 11.7 s
  Plat: 114.5 x10_4/uL
  RBC: 605.4 x10_4/ul
  Ret: 10.2%
  WBC: 96.4 x10_2/uL
  KIDNEY_L: 0.9 g
  KIDNEY_R: 0.9 g
  KIDNEY_TOTAL: 1.8 g
  LIVER: 8.4 g
  ALP: 810.4 IU/L
  ALT: 29.2 IU/L
  AST: 58.4 IU/L
  BUN: 12.2 mg/dL
  CRE: 0.6 mg/dL
  Ca: 10.9 mg/dL
  DBIL: 0.04 mg/dL
  IP: 10.9 mg/dL
  K: 4.6 meq/L
  LDH: 68.2 IU/L
  Na: 137.6 meq/L
  PL: 110.8 mg/dL
  RALB: 3.7 g/dL
  TBIL: 0.4 mg/dL
  TC: 61.8 mg/dL
  TG: 34.2 mg/dL
  TP: 5.2 g/dL
  gamma-GTP: 1.8 IU/L
24 h
  TERMINAL_BW: 215.6 g
  Bas: 0%
  Eos: 1%
  Fbg: 222.6 mg/dL
  Hb: 13 g/dL
  Ht: 40.1%
  Lym: 82.8%
  MCHC: 32.5%
  Mono: 8.2%
  Neu: 8.4%
  Plat: 113.8 x10_4/uL
  RBC: 614 x10_4/ul
  Ret: 9.5%
  KIDNEY_L: 1 g
  KIDNEY_R: 1 g
  KIDNEY_TOTAL: 2 g
  ALP: 887.6 IU/L
  ALT: 38.8 IU/L
  AST: 65 IU/L
  BUN: 18.6 mg/dL
  CRE: 0.6 mg/dL
  Ca: 10.8 mg/dL
  DBIL: 0.05 mg/dL
  IP: 8 mg/dL
  K: 4.6 meq/L
  LDH: 97.8 IU/L
  Na: 139.4 meq/L
  PL: 144.8 mg/dL
  RALB: 3.7 g/dL
  TBIL: 0.4 mg/dL
  TC: 79.6 mg/dL

Source: ChEMBL document CHEMBL3885861, “Open TG-GATES”
